These results are taken from patent publication US10829483B2, “Thiophene, manufacturing method thereof, and pharmaceutical application of same” (CSTONE PHARMACEUTICAL (SUZHOU) CO., LTD., priority 2016, dated 2020).

Bounds are passed on as bounds.

Sequence of URAT-1 (uric acid transporter) (Q96S37 whole entry): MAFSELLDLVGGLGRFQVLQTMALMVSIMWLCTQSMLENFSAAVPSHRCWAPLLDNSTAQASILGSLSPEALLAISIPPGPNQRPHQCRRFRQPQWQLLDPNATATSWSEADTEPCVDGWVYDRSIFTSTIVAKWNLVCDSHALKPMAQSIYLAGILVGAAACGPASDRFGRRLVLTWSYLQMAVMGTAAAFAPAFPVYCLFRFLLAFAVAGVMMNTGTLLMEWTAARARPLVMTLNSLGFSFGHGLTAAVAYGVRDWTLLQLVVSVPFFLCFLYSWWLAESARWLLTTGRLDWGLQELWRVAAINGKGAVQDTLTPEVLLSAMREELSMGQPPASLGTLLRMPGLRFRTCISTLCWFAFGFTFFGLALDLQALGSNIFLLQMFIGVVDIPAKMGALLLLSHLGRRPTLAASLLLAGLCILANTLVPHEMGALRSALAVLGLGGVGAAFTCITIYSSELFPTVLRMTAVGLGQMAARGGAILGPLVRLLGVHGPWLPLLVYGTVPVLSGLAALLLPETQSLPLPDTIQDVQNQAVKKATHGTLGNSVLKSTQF

The test addresses URAT-1 (uric acid transporter) (Homo sapiens (Human), UniProt Q96S37). Briefly: Inhibition of 14C uric acid transport by HEK293 cell line stably transfected with the URAT-1 gene. The class given is cell-based. The note with it: URAT-1 (HEK293) cells; 14C-labelled uric acid 50 um, 10 min at 37° C.; read-out: IC50 (inhibition against URAT-1). The method, then: Determination of the IC50 value of the inhibitory activity of the compound against uric acid reabsorption by the HEK293 cell line stably transfected with the URAT-1 (uric acid transporter) gene.
URAT-1 (HEK293) cell line: the HEK293 cell line stably transfected with the URAT-1 gene
cell culture medium: DMEM culture medium added 10% fetal bovine serum (FBS), 1% sodium pyruvate and […] G418.
Uric acid solution labeled by ^14C.
1) the supernatant of cell culture was aspirated, and cells was washed with 10 mL PBS.
2) preheated trypsin was added into the cell culture flask, and the cell culture flask was rotated to make trypsin covering onto the bottom of cell culture flask equably.
3) the cells were suspended with 10-15 mL of culture medium in each T150 flask, took 0.1 mL of cell suspension and diluted it with two volumes of trypan blue solution to count the cells.
4) cells were diluted to 2.5×10^5/mL with the culture medium, and the diluted cells were added into a rat tail collagen-coated 24-well plate (800 uL/well, 2×10^5 cells/well). The plate was incubated overnight at 37° C. in a 5% CO2 incubator.
1) cells were seeded into 24-well plate, and supernatant was discarded after 16-18 h. The cells were washed twice using 600 ul HBSS buffer.
2) HBSS buffer was removed and 180 ul of HBSS buffer was added into each well again.
1) compounds were dissolved into 100% DMSO, and diluted into 6 concentration points by 3-fold dilution, or into 2 concentration points by 10-fold dilution, and the highest starting concentration was 50 mM.
2) 5 ul DMSO solution in step 1) was transferred into 120 ul of HBSS buffer to make a 25-fold dilution.
3) 10 ul diluted solution in step 2) was added into 24-well plate, and the plate was incubated for 15 min at 37° C. in a 5% CO2 incubator. The final concentration of DMSO is 0.2%. The control well contained 0.2% DMSO without compound.
^14C-labelled uric acid was diluted and added into plate, and the final concentration is 50 um. The plate was incubated for 10 min at 37° C. in a 5% CO2 incubator. After supernatant was discarded, cells were washed with HBSS buffer twice. Cells was lysed with 0.1M NaOH. And then cell lysis solution was collected into liquid scintillation tube and added with liquid scintillation solution. The signal was read by liquid scintillation counter Tri-Carb. e) data analysis URAT-1 inhibition by the treatment of the compounds was analyzed by calculating the percentage of inhibition. Non-linear fitting analysis of percent inhibition (inh %) data using GraphPad Prism software to generate the IC50 value.
As to `O=C(O)CSc1nnc(Br)n1-c1sc(-c2ccc(F)cc2)c2c1CCCC2` [WX006], the IC50 – broadly, the concentration that gives 50% inhibition – is 2 to 20 µM.

With `O=C(O)CSc1nnc(Br)n1-c1sc(-c2ccc(F)cc2)c2c1CCC2` [WX038], the IC50 is more than 20 µM.

Take `CC(Sc1nnc(Br)n1-c1sc(-c2ccc(C(F)(F)F)cc2)c2c1CCCC2)C(=O)O` (stereo not drawn) [WX014]: the IC50 was less than 2 µM.

In the case of `CC(Sc1nnc(Br)n1-c1sc(-c2ccccc2)c2c1CCCC2)C(=O)O` (stereo not drawn) [WX004], the IC50 fell in the range of 2 to 20 µM.

Regarding `Cc1cc(-n2c(Br)nnc2SC(C)C(=O)O)sc1-c1cccc(F)c1` (stereo not drawn) [WX087], the IC50 fell in the range of 2 to 20 µM.

Consider `CC(Sc1nnc(Br)n1-c1sc(C2CC2)c2c1CCCC2)C(=O)O` (stereo not drawn) [WX026], for which the IC50 is less than 2 µM.

`COc1ccc(-c2sc(-n3c(Br)nnc3SCC(=O)O)cc2C)cc1` [WX083]: the IC50 was more than 20 µM.

Consider `CN(C)c1ccc(-c2sc(-n3cnnc3SCC(=O)O)c3c2CCC3)cc1Br` [WX057], for which the IC50 lay within 2 to 20 µM.

For the compound `O=C(O)CSc1nnc(Br)n1-c1sc(-c2ccccc2)c2c1OCCO2` [WX099], the IC50 was more than 20 µM.

With `O=C(O)CSc1nnc(Br)n1-c1sc(-c2ccc(F)c(F)c2)c2c1CCCC2` [WX008], the IC50 was in the range of 2 to 20 µM.

With `O=C(O)CSc1nnc(Br)n1-c1sc(-c2cccc(Cl)c2)c2c1CCC2` [WX045], the IC50 is more than 20 µM.

Turning to `C[C@@H](Sc1nnc(Br)n1-c1sc(C2CC2)c2c1CCCC2)C(=O)O` [WX031], the IC50 is less than 2 µM.

Take `Cc1cc(-n2c(Br)nnc2SCC(=O)O)sc1-c1ccc(F)cc1` [WX082]: the IC50 was more than 20 µM.

Turning to `CN(C)c1ccc(-c2sc(-n3cnnc3SC(C)(C)C(=O)O)c3c2CCCC3)cc1Br` [WX023], the IC50 is 2 to 20 µM.

In the case of `CC1(C)Cc2c(C3CC3)sc(-n3c(Br)nnc3SC3(C(=O)O)CCC3)c2C1` [WX066], the IC50 is less than 2 µM.

As to `Cc1cc(-n2c(Br)nnc2SC(C)(C)C(=O)O)sc1C1CC1` [WX089], the IC50 fell in the range of 2 to 20 µM.

On to `O=C(O)C1(Sc2nnc(Br)n2-c2sc(C3CC3)c3c2CCC3)CCC1` [WX059], for which the concentration for half-maximal inhibition (IC50) was less than 2 µM.

`COc1ccc(-c2sc(-n3c(Br)nnc3SC(C)C(=O)O)c3c2CCCC3)cc1Br` (stereo not drawn) [WX012]: the IC50 was less than 2 µM.

With `O=C(O)CSc1nncn1-c1sc(-c2ccc(Cl)c(Cl)c2)c2c1CCC2` [WX055], the IC50 is more than 20 µM.

With `Cc1ccc(-c2sc(-n3c(Br)nnc3SCC(=O)O)c3c2CCC3)cc1` [WX042], the IC50 was more than 20 µM.

On to `O=C(O)C1(Sc2nnc(Br)n2-c2sc(C3CC3)c3c2CCCC3)CCCC1` [WX030], for which the IC50 was less than 2 µM.

On to `CC(Sc1nncn1-c1sc(C2CC2)c2c1CCCC2)C(=O)O` (stereo not drawn) [WX036], for which the IC50 is more than 20 µM.

On to `COC(=O)C(C)Sc1nncn1-c1cc(Br)c(-c2ccccc2)s1` (stereo not drawn) [WX075], for which the IC50 lay within 2 to 20 µM.

Take `Cc1cc(-n2cnnc2SCC(=O)O)sc1-c1ccc(F)cc1` [WX095]: the IC50 is more than 20 µM.

For the compound `CN(C)c1ccc(-c2sc(-n3cnnc3SCC(=O)O)c3c2CCC3)cc1` [WX053], the IC50 was more than 20 µM.

On to `O=C(O)C1(Sc2nnc(Br)n2-c2cc(Cl)c(C3CC3)s2)CCC1` [WX068], for which the IC50 is 2 to 20 µM.

Regarding `O=C(O)C1(Sc2nnc(Br)n2-c2cc(Cl)c(C3CC3)s2)CCCC1` [WX069], the IC50 is less than 2 µM.

As to `COc1ccc(-c2sc(-n3c(Br)nnc3SCC(=O)O)c3c2CCC3)cc1` [WX043], the IC50 was more than 20 µM.

For `O=C(O)CSc1nnc(Br)n1-c1sc(C2CC2)c2c1CCCC2` [WX001], the IC50 is less than 2 µM.

With `CC(C)(Sc1nnc(Br)n1-c1sc(-c2ccccc2)c2c1CCCC2)C(=O)O` [WX005], the IC50 is less than 2 µM.

For the compound `O=C(O)CSc1nncn1-c1sc(-c2ccc(C(F)(F)F)cc2)c2c1CCC2` [WX051], the IC50 is more than 20 µM.

For `CC(Sc1nnc(Br)n1-c1sc(C2CC2)c2c1CCC2)C(=O)O` (stereo not drawn) [WX061], the IC50 is less than 2 µM.

For the compound `COC(=O)CSc1nncn1-c1cc(Br)c(-c2ccccc2)s1` [WX073], the IC50 was more than 20 µM.

Regarding `Cn1cc(-c2sc(-n3cnnc3SCC(=O)O)c3c2CCC3)cn1` [WX056], the IC50 was more than 20 µM.

Take `COc1ccc(-c2sc(-n3c(Br)nnc3SCC(=O)O)c3c2CCCC3)cc1` [WX017]: the IC50 lay in the range of 2 to 20 µM.

Turning to `CC(C)(Sc1nnc(Br)n1-c1sc(-c2ccc(C(F)(F)F)cc2)c2c1CCCC2)C(=O)O` [WX010], the IC50 lay in the range of 2 to 20 µM.

Consider `Cc1cc(-n2c(Br)nnc2SCC(=O)O)sc1-c1ccccc1` [WX079], for which the IC50 was in the range of 2 to 20 µM.

On to `C[C@H](Sc1nnc(Br)n1-c1sc(C2CC2)c2c1CCCC2)C(=O)O` [WX032], for which the IC50 was less than 2 µM.

Turning to `O=C(O)CSc1nnc(Br)n1-c1sc(-c2ccc(Cl)c(Cl)c2)c2c1CCCC2` [WX019], the IC50 is 2 to 20 µM.

For `CCOC(=O)CSc1nncn1-c1cc(Br)c(C2CC2)s1` [WX072], the IC50 was more than 20 µM.

As to `CC(Sc1nnc(Br)n1-c1cc(Cl)c(C2CC2)s1)C(=O)O` (stereo not drawn) [WX070], the IC50 is 2 to 20 µM.

Consider `Cc1ccc(-c2sc(-n3cnnc3SCC(=O)O)c3c2CCC3)cc1` [WX050], for which the IC50 was more than 20 µM.
